Each structure is given as a SMILES string. Entries after “also recorded” stand apart in the source; their conditions may differ.

Experiment [1] has as its system chick embryo vitelline capillaries. The experiment can be described thus: Chick embryo vitelline capillary regression assay. The format is in vivo. Details: key to Vitelline capillary regression: +: Vascular reactivity; 0: No vascular reactivity; +/-: Equivocal reactivity. The procedure: Using the chick embryo vitelline capillaries assay, compounds were tested for their ability to induce capillary regression. Each compound was applied in 0.1 ml of 15% Ficol 400 and PBS onto the embryo, and vascular regression was assessed after 60 minutes.
The 3-day chick embryo consists of an embryonic disc from which numerous vessels emerge and return, forming a "FIG. 8"-shaped structure--the embryo in the center with vascular loops extending outward over both poles. […] Following a lag period of around 15 minutes, the constriction of continuity between capillary and secondary vessels, generally on the "venous" side, was observed. Continued pulsatile blood flow progressed, resulting in a "swelling" of the blind tube, followed by a pinching off of the remaining connection and formation of an enclosed vascular sac resembling a "blood island." This process progressed until only the largest vessels remained intact.

The test system of the next experiment is HM. Briefly: HM MTT assay. The format is cell-based. Conditions: Table II; read-out: HM MTT assay, Minimum Effective Concentration.
Experiment [2] concerns Xenopus tadpoles, stage 59-60. The experiment can be described thus: Xenopus tadpole assay. Conditions: for Pharmacologic similarity in tadpole assay: in vivo; for Tadpole assay, observed effects: 10 μg/ml.
Another experiment deals with NHE3. Conditions: cited from earlier work.
Experiment [3] can be described thus: Fasting blood glucose in mice. The class given is in vivo, male CD-1 mice. The procedure: To study the effect of steroid administrator or the NHE responsible for secretion of insulin, several of the aminosterols from shark liver were administered to fasting mice. Male CD-1 mice were assigned to one of four treatment groups. Whole blood glucose was tested using glucometer (Lifescan Glucometer II and One Touch test strips). Statistical analysis was via one-way analysis of variance (ANOVA) followed by subsequent Bonferonni's t-test.

`C[C@H](CCC(=O)O)[C@H]1CC[C@H]2[C@@H]3[C@H](O)C[C@@H]4C[C@@H](NCCN)CC[C@]4(C)[C@H]3CC[C@]12C` [Compound 415]: the Vitelline capillary regression is 0 in experiment [1] (0.001 μg applied), “+” in experiment [1] (0.01 μg applied), “+” in experiment [1] (0.1 μg applied) and “+” in experiment [1] (1 μg applied).

Consider `COC(=O)CC[C@@H](C)[C@H]1CC[C@H]2[C@@H]3CC[C@H]4C[C@H](NCCCNCCCCNCCCN)CC[C@]4(C)[C@H]3CC[C@]12C` [Compound 458], for which the minimal effective concentration with HM was 6.8 µg/mL. Further, the “Pharmacologic similarity in tadpole assay” value (“Pharmacologic similarity” below) in experiment [2] is on record as “pharmacologic activity similar to that seen for FX 3”.

For the compound `CC(C)CCC[C@@H](C)[C@H]1CC[C@H]2[C@@H]3CC[C@H]4C[C@@H](NCCCNCCCCN)CC[C@]4(C)[C@H]3CC[C@]12C` [Compound 303], the Vitelline capillary regression in experiment [1] (1 μg applied) is reported as 0.

Take `COC(=O)CC[C@@H](C)[C@H]1CC[C@H]2[C@@H]3C[C@@H](O)[C@H]4C[C@@H](NCCN)CC[C@]4(C)[C@H]3CC[C@]12C` [Compound 432]: in experiment [2], the “Pharmacologic similarity” value is reported as “functionally similar to compound 1437”.

Regarding `CC(C)CCC[C@@H](C)[C@H]1CC[C@H]2[C@@H]3[C@H](O)C[C@H]4C[C@H](N)CC[C@]4(C)[C@H]3CC[C@]12C` [Compound 1363], in experiment [2], the “Pharmacologic similarity” value is recorded as “potencies comparable to that of Fraction 1”.

As for `COC(=O)CC[C@@H](C)[C@H]1CC[C@H]2[C@@H]3C[C@@H](O)[C@H]4C[C@H](NCCN)CC[C@]4(C)[C@H]3CC[C@]12C` [Compound 431], the “Pharmacologic similarity” value in experiment [2] is “functionally similar to compound 1437”.

`COC(=O)CC[C@@H](C)[C@H]1CC[C@H]2[C@@H]3CC[C@H]4C[C@@H](NCCCNCCCCNCCCN)CC[C@]4(C)[C@H]3CC[C@]12C` [Compound 459]: the minimal effective concentration in the experiment with HM was 5 µg/mL. The “Pharmacologic similarity” value in experiment [2] was “pharmacologic activity similar to that seen for FX 3”.

With `CC(C)CCC[C@@H](C)[C@H]1CC[C@H]2[C@@H]3[C@H](O)C[C@H]4C[C@@H](N)CC[C@]4(C)[C@H]3CC[C@]12C` [Compound 364], the Vitelline capillary regression is listed as 0 in experiment [1] (0.001 μg applied); 0 in experiment [1] (0.01 μg applied); 0 in experiment [1] (0.1 μg applied); “+” in experiment [1] (1 μg applied); “+” in experiment [1] (10 μg applied). Also, the “Chick embryo diss. assay, Minimum Effective Concentration” value in experiment [1] (Table II) was determined as 1 µg.

`C[C@H](CCC(=O)O)[C@H]1CC[C@H]2[C@@H]3[C@H](O)C[C@H]4C[C@H](NCCCNCCCCN)CC[C@]4(C)[C@H]3CC[C@]12C` [Compound 382]: the Vitelline capillary regression was 0 in experiment [1] (0.001 μg applied); 0 in experiment [1] (0.01 μg applied); 0 in experiment [1] (0.1 μg applied); “+” in experiment [1] (1 μg applied); “+” in experiment [1] (10 μg applied).

Broadly, the Ki is a dissociation constant, usually derived from enzyme kinetics or from competition with a known ligand. In the case of `N=C(N)NC(=O)c1nc(Cl)c(N)nc1N` [Amiloride], on NHE3, the Ki was 100 µM.

Turning to `C[C@H](CCC(=O)O)[C@H]1CC[C@H]2[C@@H]3[C@H](O)C[C@H]4C[C@@H](NCCCNCCCCN)CC[C@]4(C)[C@H]3CC[C@]12C` [Compound 381], the Vitelline capillary regression in experiment [1] (1 μg applied) was 0.

Turning to `COC(=O)CC[C@@H](C)[C@H]1CC[C@H]2[C@@H]3[C@H](O)C[C@H]4C[C@@H](NCCCNCCCCNCCCN)CC[C@]4(C)[C@H]3CC[C@]12C` [Compound 396], the Vitelline capillary regression in experiment [1] (0.001 μg applied) is on record as 0; in experiment [1] (0.01 μg applied) it was 0; in experiment [1] (0.1 μg applied), 0; in experiment [1] (1 μg applied), “+”.

On to `CC(C)CCC[C@@H](C)[C@H]1CC[C@H]2[C@@H]3[C@H](O)C[C@H]4C[C@@H](NCCCNCCCCN)CC[C@]4(C)[C@H]3CC[C@]12C` [Compound 371], for which the Vitelline capillary regression is given as 0 in experiment [1] (0.001 μg applied); 0 in experiment [1] (0.01 μg applied); 0 in experiment [1] (0.1 μg applied); “+/-” in experiment [1] (1 μg applied); “+” in experiment [1] (10 μg applied). In addition, the “Pharmacologic similarity” value in experiment [2] is “effects like those produced by compound 1436”.

With `COC(=O)CC[C@@H](C)[C@H]1CC[C@H]2[C@@H]3C[C@@H](O)[C@H]4C[C@@H](NCCCNCCCCNCCCN)CC[C@]4(C)[C@H]3CC[C@]12C` [Compound 466], the “Pharmacologic similarity” value in experiment [2] was “pharmacologic activity similar to that seen for FX 3”.

For `C[C@H](CCC(=O)O)[C@H]1CC[C@H]2[C@@H]3[C@H](O)C[C@@H]4C[C@@H](NCCCNCCCCNCCCN)CC[C@]4(C)[C@H]3CC[C@]12C` [Compound 413], in experiment [1] (1 μg applied), the Vitelline capillary regression is listed as 0. The “Pharmacologic similarity” value in experiment [2] was “effects like those produced by compound 1436”.

As to `C[C@H](CCC(=O)O)[C@H]1CC[C@H]2[C@@H]3[C@H](O)C[C@@H]4C[C@H](NCCN)CC[C@]4(C)[C@H]3CC[C@]12C` [Compound 414], the Vitelline capillary regression in experiment [1] (1 μg applied) amounted to 0. Also, the “Pharmacologic similarity” value in experiment [2] is recorded as “potencies comparable to that of Fraction 1”.

With `C[C@H](CCC(=O)O)[C@H]1CC[C@H]2[C@@H]3C[C@@H](O)[C@H]4C[C@@H](NCCN)CC[C@]4(C)[C@H]3CC[C@]12C` [Compound 433], the “Pharmacologic similarity” value in experiment [2] is reported as “functionally similar to compound 1437”.

As to `CC(COS(=O)(=O)O)C(=O)CC[C@@H](C)[C@H]1CC[C@H]2[C@@H]3[C@H](O)C[C@H]4C[C@@H](NCCCNCCCCN)CC[C@]4(C)[C@H]3CC[C@]12C` (single isomer, unassigned) [Compound 1360], the Vitelline capillary regression in experiment [1] (1 μg applied) came out at 0. Further, the “Effect on chick embryo vessels” value in experiment [1] (3- to 5-day chick embryo) is “the blood circulating through the embryonic vessels exhibited a brighter red color, reflecting a higher degree of oxygenation”. The “Tadpole assay, observed effects” value in experiment [2] is “Swelling and lysis of certain erythrocytes occurred; also recorded: extensive vasocclusion occurred within 60 minutes throughout the tail”.

For `COC(=O)CC[C@@H](C)[C@H]1CC[C@H]2[C@@H]3C[C@@H](O)[C@H]4C[C@H](NCCCNCCCCNCCCN)CC[C@]4(C)[C@H]3CC[C@]12C` [Compound 465], in experiment [2], the “Pharmacologic similarity” value is “pharmacologic activity similar to that seen for FX 3”.

As to `C[C@H](CCC(=O)O)[C@H]1CC[C@H]2[C@@H]3CC[C@H]4C[C@H](NCCCNCCCCN)CC[C@]4(C)[C@H]3CC[C@]12C` [Compound 318], the Vitelline capillary regression in experiment [1] (1 μg applied) is 0.

Take `C[C@H](CCC(=O)O)[C@H]1CC[C@H]2[C@@H]3[C@H](O)C[C@@H]4C[C@H](NCCCNCCCCNCCCN)CC[C@]4(C)[C@H]3CC[C@]12C` [Compound 412]: the Vitelline capillary regression was 0 in experiment [1] (0.001 μg applied), 0 in experiment [1] (0.01 μg applied), 0 in experiment [1] (0.1 μg applied) and “+” in experiment [1] (1 μg applied). In addition, in the experiment with HM, the minimal effective concentration turned out to be 18.1 µg/mL. For the same compound, the “Pharmacologic similarity” value in experiment [2] is given as “pharmacologic activity similar to that seen for FX 3”.

For the compound `COC(=O)CC[C@@H](C)[C@H]1CC[C@H]2[C@@H]3CC[C@@H]4C[C@H](NCCN)CC[C@]4(C)[C@H]3C[C@H](O)[C@]12C` [Compound 416], the minimal effective concentration in the experiment on HM was determined as 2.4 µg/mL. Also, the “Pharmacologic similarity” value in experiment [2] was “functionally similar to compound 1437”.

For the compound `CC(C)CCC[C@@H](C)[C@H]1CC[C@H]2[C@@H]3[C@H](O)C[C@H]4C[C@H](NCCCNCCCCN)CC[C@]4(C)[C@H]3CC[C@]12C` [Compound 370], the “Pharmacologic similarity” value in experiment [2] is “pharmacologic activity similar to that seen for FX 3”.

As for `COC(=O)CC[C@@H](C)[C@H]1CC[C@H]2[C@@H]3[C@H](O)C[C@@H]4C[C@@H](NCCCNCCCCNCCCN)CC[C@]4(C)[C@H]3CC[C@]12C` [Compound 411], the Vitelline capillary regression in experiment [1] (0.001 μg applied) is reported as 0; in experiment [1] (0.01 μg applied), 0; in experiment [1] (0.1 μg applied) it was 0; in experiment [1] (1 μg applied), “+/-”.

With `CC(C)C(CO)(CC[C@@H](C)[C@H]1CC[C@H]2[C@@H]3[C@H](O)C[C@H]4C[C@@H](NCCCNCCCCN)CC[C@]4(C)[C@H]3CC[C@]12C)OS(=O)(=O)O` (single isomer, unassigned) [Compound 1437], the “Tadpole assay, observed effects” value in experiment [2] is “Epithelium covering the embryonic portions of the animal, such as the tail and antennae, began to slough off in sheets; also recorded: the larval skin was observed to shed off in a sheet”. Besides, the “Hyperglycemia” value in experiment [3] (i.v., 1436 in D5W, 1437 in water) was “caused hyperglycemia in mice”. Besides, the “Fasting Blood Glucose Mean ± SEM” value in experiment [3] (total dose 20 mg/kg i.v. (2 × 10 mg/kg), 30 min. after 2d dose) was determined as 82 ± 15.3 mg/dL.

As for `COC(=O)CC[C@@H](C)[C@H]1CC[C@H]2[C@@H]3[C@H](O)C[C@@H]4C[C@@H](NCCN)CC[C@]4(C)[C@H]3CC[C@]12C` [Compound 409], in experiment [1] (1 μg applied), the Vitelline capillary regression stood at 0. Further, the “Pharmacologic similarity” value in experiment [2] was “functionally similar to compound 1437”.

As to `COC(=O)CC[C@@H](C)[C@H]1CC[C@H]2[C@@H]3[C@H](O)C[C@@H]4C[C@H](NCCN)CC[C@]4(C)[C@H]3CC[C@]12C` [Compound 410], the Vitelline capillary regression in experiment [1] (0.001 μg applied) is reported as 0; in experiment [1] (0.01 μg applied), “+/-”; in experiment [1] (0.1 μg applied), “+/-”; in experiment [1] (1 μg applied), “+”. Moreover, in the experiment with HM, the minimal effective concentration was found to be 2.6 µg/mL. For the same compound, the “Pharmacologic similarity” value in experiment [2] was “functionally similar to compound 1437”.
